One compound from patent publication US20250160330A1, “METHOD FOR CONTROLLING HARMFUL ARTHROPODS OR HARMFUL NEMATODES USING ZOANTHAMINE ANALOG” (SUMITOMO CHEMICAL COMPANY, LIMITED, priority 2022, published 2025) can be followed below.

Test [1] relates to cotton aphids (Aphis gossypii). Kind of test: Test method 3: foliar spray on cucumber seedling infested with cotton aphids. The settings on record: read-out: mortality of insects.
Test [2] relates to cotton worm (Spodoptera litura). Kind of test: Test method 2: foliar spray on cabbage seedling, cotton worm larvae. It is filed as in vivo. The settings on record: 144 h, read-out: mortality of insects. As for the experimental part:
(§1) Test compounds are made to a formulation according to a similar method to that described in the Formulation Example 5, and thereto is added water containing 0.03 v/v % of Shindain (registered trademark) to prepare a diluted solution containing a prescribed concentration of the test compound.
(§2) Cabbage (Brassicae oleracea) seedling (on the developmental stage of the third to fourth true leaf) is planted in a cup, and the diluted solutions are sprayed into the seedling at a ratio of 20 mL/seedling. Thereafter, ten (10) cotton worm (Spodoptera litura) at the third instar larval stage are released. After 6 days, the number of the surviving insects is counted, and the mortality of insects is calculated by the following equation.

Test [3] deals with southern root-knot nematode (Meloidogyne incognita). Kind of test: Test method 7: soil mixing and irrigation, tomato seedlings in nematode-polluted soil, root-knot index by Zeck. It is filed as in vivo. The settings on record: 1,000 ppm. As for the experimental part: Test compounds 60 mg are dissolved in acetone 600 μL containing Tween (Registered trade mark) by 5%, and thereto is added water to prepare a diluted solution containing a prescribed concentration of the test compound.
The diluted solution 20 mL are soil which is polluted with southern root-knot nematode (Meloidogyne incognita) 400 mL are mixed, and a root of healthy tomato seedlings (on the developmental stage of third to fourth true leaf) is transplanted in the soil. After the transplanting, the diluted solution 40 mL is irrigated onto soli of tomato seedlings. After 10 days, the roots are pull out from the soil, washed and the damage degree of the root (root-knot degree) is examined according to a root-knot index by Zeck (Zeck, W. M. (1971): Pflanzenschutz-Nachrichten. Bayer AG, 24, 141-144).
• 0: No root-knots is recognized. • 1: By careful observation, several small root-knots can be recognized. • 2: Several small root-knots can be easily confirmed similarly to 1. • 3: Many small root-knots are found, and some of which are fused. A function of the root is not almost lost. • 4: Many small root-knots are found, and some large ones are found. […]

Test [4] has as its system silverleaf whiteflies (Bemisia tabaci). Kind of test: Test method 6: foliar spray on tomato seedling with silverleaf whitefly larvae. The settings on record: in Solanum lycopersicum, 168 h, read-out: mortality of insects.
In test [5] the test system is northern house mosquitos (Culex pipiens pipiens). The test is described as follows: Test method 8: coated container contact test, northern house mosquito female adults. In kind it is in vivo. The settings on record: 24 h, read-out: mortality of insects. As for the experimental part:
The test compounds are dissolved with acetone containing a surfactant, and the solution was then poured into a container of 20 mL contents, and the solution was coating uniformly in the inner face of the container such that the test compound is made 10 mg/m^2, and the surfactant is made 40 mg/m^2, and the container is dried.
Five (5) of female adult of northern house mosquitos (Culex pipiens pipiens) are placed in the contained, and the contained is put the lid. After the passing of the prescribed times, the state of the northern house mosquitos are examined, and the mortality is calculated by the following equation.

Test [6] concerns western flower thrips (Frankliniella occidentalis). Kind of test: Test method 5: sprayed cucumber leaf, western flower thrips larvae. It is filed as in vivo. The settings on record: 144 h, read-out: mortality of insects. As for the experimental part: as §1
Cucumber (Cucumber sativus) seedling (on the developmental stage of the second true leaf) is planted in a cup, and the diluted solutions are sprayed into the seedling at a ratio of 10 mL/seedling. Thereafter, the second true leaf is cut, and the cut leaf was placed in the cup, and approximately twenty (20) of larvae of western flower thrips (Frankliniella occidentalis) larvae are released onto the leaf. After 6 days, the number of the surviving insects is examined and the mortality of insects is calculated by the following equation.

Test [7] concerns brown planthoppers (Nilaparvata lugens). Kind of test: Test method 4: foliar spray on rice seedling, brown planthopper larvae. The settings on record: 144 h, read-out: mortality of insects. In kind it is in vivo. As for the experimental part: as §1
Rice (Oryza sativa) seedling (on the developmental stage of the second true leaf) is planted in a cup, and the diluted solutions are sprayed into the seedling at a ratio of 10 mL/seedling. Thereafter, twenty (20) of 3rd instar larvae of brown planthoppers (Nilaparvata lugens) are released onto the rice leaves. After 6 days, the number of the surviving insects is examined and the mortality of insects is calculated by the following equation.

Test [8] deals with cotton worm (Spodoptera litura). The test is described as follows: Test method 1: foliar spray on cabbage seedling, cotton worm larvae. In kind it is in vivo. The settings on record: 144 h, read-out: mortality of insects. Here is the method:
The test compounds are made to a formulation according to a similar method to that described in the Formulation Example 5, and thereto is added water containing 0.03 v/v % of Shindain (registered trademark) to prepare a diluted solution containing a prescribed concentration of the test compound.
as §2

The mortality is the percentage killed. On to `CC1=CC(=O)[C@H]2CC(=O)[C@H]3[C@](C)([C@@H]2C1)[C@H](Cl)[C@@]12OC(=O)C[C@]3(C)[C@]1(C)CC[C@]13C[C@@H](C)C[C@H](CN12)O3` [AA-1], for which the mortality at 200 ppm in test [1] is no less than 90%; in test [2], no less than 80%; in test [4] it was no less than 90%; in test [6], no less than 90%; in test [7], no less than 90%; in test [8], no less than 80%. The root-knot index in test [3] (20 mL mixed with 400 mL soil plus 40 mL irrigation, tomato seedlings, after 10 days, untreated group index 4) was 1 (By careful observation, several small root-knots can be recognized.). In addition, the formation of root-knot result in test [3] (versus untreated group) was “reduced a formation of root-knot”. Moreover, the mortality at 10 mg/m2 in test [5] is no less than 80%.
